Among the data in patent publication EP3212201B1, “NUCLEOSIDE KINASE INHIBITORS” (BCI Pharma, priority 2014, dated 2016) are inhibition values, retold here.

The structures appear in SMILES notation.

What all share (test): FRET-based coupled-enzyme protein kinase inhibition assay
Type in all cases: biochemical
Holding throughout (details): compound at 10 µM, 1% DMSO

In one assay the target is EGFR (ErbB1) (Homo sapiens, UniProt P00533). The procedure: (§1) A biochemical assay was then performed in order to measure the protein kinase inhibition. It employed a fluorescence-based coupled-enzyme format and was based on the differential sensitivity of phosphorylated and non-phosphorylated peptides to proteolytic cleavage.
(§2) Peptide substrates were labeled with two fluorophores. The two fluorohores used were coumarin (donor) and fluorecein (acceptor), and each of the peptides was bearing one at one end, and one at the other end, which made up fluorescence resonance energy transfer (FRET) pair peptides.
(§3) In a primary reaction, the FRET-peptides were submitted to a phosphorylation reaction, in which one of adenosine triphosphate (ATP)'s phosphate groups was transferred to the peptide in the presence of kinase. When kinase inhibition takes place, the peptide will not be phosphorylated. In a secondary reaction, both the phosphorylated FRET-peptides and the non-phosphorylated FRET-peptides were reacted with a development reagent. It has been observed that non-phosphorylated FRET-peptides were cleaved, whereas the phosphorylted FRET-peptide remained intact.
(§4) Cleavage disrupts FRET between the donor (i.e., coumarin) and acceptor (i.e., fluorescein) fluorophores on the FRET-peptide, whereas uncleaved, phosphorylated FRET-peptides maintain FRET. A ratiometric method, which calculates the Emission Ratio of donor emission to acceptor emission after excitation of the donor fluorophore at 400 nm, is used to quantitate reaction progress, as shown in the equation below. [formula]
(§5) A significant benefit of this ratiometric method for quantitating reaction progress is the elimination of well-to-well variations in FRET-peptide concentration and signal intensities. As a result, the assay yields very high Z'factor values (>0.7) at a low percent phosphorylation. Both cleaved and uncleaved FRET-peptides contribute to the fluorescence signals and therefore to the Emission Ratio. The extent of phosphorylation of the FRET-peptide can be calculated from the Emission Ratio. The Emission Ratio will remain low if the FRET-peptide is phosphorylated (i.e., no kinase inhibition) and will be high if the FRET-peptide is non-phosphorylated (i.e., kinase inhibition).
(§6) The Test Compounds were screened in 1% DMSO. For 10 point titrations, 3-fold serial dilutions were prepared from the starting concentration.
(§7) All Peptide/Kinase Mixtures were diluted to a 2X working concentration in the appropriate Kinase Buffer (50 mM HEPES pH 7.5, 0.01% BRIJ-35, 10 mM MgCl2, 1 mM […]).
(§8) All ATP Solutions were diluted to a 4X working concentration in Kinase Buffer. ATP Km apparent was previously determined using another assay.
(§9) 2.5 µL - 4X Test Compound or 100 nL 100X plus 2.4 µL kinase buffer were mixed together with 2. 5 µL - 2X Peptide/Kinase Mixture and 3. 2.5 µL - 4X ATP Solution.
(§10) The solution was plate-shaked for 30 seconds, then incubated 60 minutes at room temperature for kinase reaction. 5 µL of Development Reagent Solution were then added, followed by a 30-second plate shake and a 60-minute Development Reaction incubation at room temperature. The results were read on a fluorescence plate reader and the data was analyzed.
(§11) The compounds that show the highest Emission Ratio are the ones that also show the highest protein kinase inhibition properties.

Another assay deals with FRAP1 (mTOR) (Homo sapiens, UniProt P42345). The method, then:
as §1, §2, §3, §4, §5, §6, §7, §8, §9, §10, §11

Another assay addresses T1, IKBKB (IKK beta) (Homo sapiens, UniProt O14920).
T1 sequence (O14920 1-756): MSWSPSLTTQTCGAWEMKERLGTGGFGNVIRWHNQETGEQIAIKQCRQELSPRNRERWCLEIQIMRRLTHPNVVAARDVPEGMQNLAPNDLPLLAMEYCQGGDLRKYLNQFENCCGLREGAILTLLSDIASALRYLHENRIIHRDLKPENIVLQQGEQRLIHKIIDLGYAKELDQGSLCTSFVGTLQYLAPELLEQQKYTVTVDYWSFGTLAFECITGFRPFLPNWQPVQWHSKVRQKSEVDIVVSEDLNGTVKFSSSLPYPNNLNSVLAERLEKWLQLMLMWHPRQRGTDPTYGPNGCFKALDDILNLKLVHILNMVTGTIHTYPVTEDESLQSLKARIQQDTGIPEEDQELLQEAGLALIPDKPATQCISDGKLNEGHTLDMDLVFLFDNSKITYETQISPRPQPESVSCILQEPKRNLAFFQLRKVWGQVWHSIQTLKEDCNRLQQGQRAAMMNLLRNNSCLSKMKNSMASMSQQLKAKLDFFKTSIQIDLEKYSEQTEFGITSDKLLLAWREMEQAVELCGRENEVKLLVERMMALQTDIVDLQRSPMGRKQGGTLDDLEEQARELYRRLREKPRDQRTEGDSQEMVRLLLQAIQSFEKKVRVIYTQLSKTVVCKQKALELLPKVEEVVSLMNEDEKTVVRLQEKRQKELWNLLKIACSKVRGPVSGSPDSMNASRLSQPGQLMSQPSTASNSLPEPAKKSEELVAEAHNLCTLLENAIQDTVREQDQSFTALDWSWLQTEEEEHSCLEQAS
The method, then: as §1, §2, §3, §4, §5, §6, §7, §8, §9, §10, §11

Another assay deals with T2, IRAK4 (Homo sapiens, UniProt Q9NWZ3).
T2 sequence (Q9NWZ3 1-460): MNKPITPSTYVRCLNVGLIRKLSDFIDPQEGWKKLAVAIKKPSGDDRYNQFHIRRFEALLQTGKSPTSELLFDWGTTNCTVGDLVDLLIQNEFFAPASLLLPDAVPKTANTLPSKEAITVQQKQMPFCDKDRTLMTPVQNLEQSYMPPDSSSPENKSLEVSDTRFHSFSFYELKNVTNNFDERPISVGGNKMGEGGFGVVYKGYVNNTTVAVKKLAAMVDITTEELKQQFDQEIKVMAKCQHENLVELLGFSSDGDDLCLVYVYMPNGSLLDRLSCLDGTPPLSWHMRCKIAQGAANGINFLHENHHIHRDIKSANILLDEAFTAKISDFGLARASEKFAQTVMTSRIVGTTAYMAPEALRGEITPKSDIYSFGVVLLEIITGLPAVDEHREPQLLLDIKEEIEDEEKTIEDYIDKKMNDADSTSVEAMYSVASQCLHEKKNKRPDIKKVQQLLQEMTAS
The method, then: as §1, §2, §3, §4, §5, §6, §7, §8, §9, §10, §11

In a further assay the target is KIT (Homo sapiens, UniProt P10721). The method, then: as §1, §2, §3, §4, §5, §6, §7, §8, §9, §10, §11
The target of the next assay is MET (cMet) (Homo sapiens, UniProt P08581). The procedure:
as §1, §2, §3, §4, §5, §6, §7, §8, §9, §10, §11

KIT, sequence (P10721 26-976, species assumed): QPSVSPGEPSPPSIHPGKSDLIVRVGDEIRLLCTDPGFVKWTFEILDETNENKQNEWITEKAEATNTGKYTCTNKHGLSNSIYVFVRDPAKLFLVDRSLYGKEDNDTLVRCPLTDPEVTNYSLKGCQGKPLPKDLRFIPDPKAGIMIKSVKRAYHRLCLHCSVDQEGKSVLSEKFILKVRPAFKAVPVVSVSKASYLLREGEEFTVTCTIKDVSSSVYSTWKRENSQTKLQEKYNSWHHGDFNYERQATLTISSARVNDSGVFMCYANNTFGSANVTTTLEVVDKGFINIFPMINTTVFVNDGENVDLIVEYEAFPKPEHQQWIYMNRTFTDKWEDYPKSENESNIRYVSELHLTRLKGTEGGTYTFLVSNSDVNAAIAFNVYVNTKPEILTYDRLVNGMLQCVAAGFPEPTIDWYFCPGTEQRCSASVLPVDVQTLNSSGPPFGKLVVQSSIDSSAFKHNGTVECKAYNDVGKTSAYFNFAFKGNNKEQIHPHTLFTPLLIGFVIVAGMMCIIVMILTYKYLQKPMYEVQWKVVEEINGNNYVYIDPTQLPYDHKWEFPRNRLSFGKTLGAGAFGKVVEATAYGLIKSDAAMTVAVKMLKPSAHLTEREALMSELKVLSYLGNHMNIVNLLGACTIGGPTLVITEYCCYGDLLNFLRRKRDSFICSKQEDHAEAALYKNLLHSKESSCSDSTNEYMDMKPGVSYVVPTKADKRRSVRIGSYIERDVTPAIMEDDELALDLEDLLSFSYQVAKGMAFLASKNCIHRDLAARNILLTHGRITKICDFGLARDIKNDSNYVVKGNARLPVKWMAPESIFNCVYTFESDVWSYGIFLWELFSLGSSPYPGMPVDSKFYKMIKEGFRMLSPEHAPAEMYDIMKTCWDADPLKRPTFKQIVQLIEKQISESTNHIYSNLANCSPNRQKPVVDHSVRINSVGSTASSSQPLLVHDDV
MET (cMet), sequence (P08581 25-1390): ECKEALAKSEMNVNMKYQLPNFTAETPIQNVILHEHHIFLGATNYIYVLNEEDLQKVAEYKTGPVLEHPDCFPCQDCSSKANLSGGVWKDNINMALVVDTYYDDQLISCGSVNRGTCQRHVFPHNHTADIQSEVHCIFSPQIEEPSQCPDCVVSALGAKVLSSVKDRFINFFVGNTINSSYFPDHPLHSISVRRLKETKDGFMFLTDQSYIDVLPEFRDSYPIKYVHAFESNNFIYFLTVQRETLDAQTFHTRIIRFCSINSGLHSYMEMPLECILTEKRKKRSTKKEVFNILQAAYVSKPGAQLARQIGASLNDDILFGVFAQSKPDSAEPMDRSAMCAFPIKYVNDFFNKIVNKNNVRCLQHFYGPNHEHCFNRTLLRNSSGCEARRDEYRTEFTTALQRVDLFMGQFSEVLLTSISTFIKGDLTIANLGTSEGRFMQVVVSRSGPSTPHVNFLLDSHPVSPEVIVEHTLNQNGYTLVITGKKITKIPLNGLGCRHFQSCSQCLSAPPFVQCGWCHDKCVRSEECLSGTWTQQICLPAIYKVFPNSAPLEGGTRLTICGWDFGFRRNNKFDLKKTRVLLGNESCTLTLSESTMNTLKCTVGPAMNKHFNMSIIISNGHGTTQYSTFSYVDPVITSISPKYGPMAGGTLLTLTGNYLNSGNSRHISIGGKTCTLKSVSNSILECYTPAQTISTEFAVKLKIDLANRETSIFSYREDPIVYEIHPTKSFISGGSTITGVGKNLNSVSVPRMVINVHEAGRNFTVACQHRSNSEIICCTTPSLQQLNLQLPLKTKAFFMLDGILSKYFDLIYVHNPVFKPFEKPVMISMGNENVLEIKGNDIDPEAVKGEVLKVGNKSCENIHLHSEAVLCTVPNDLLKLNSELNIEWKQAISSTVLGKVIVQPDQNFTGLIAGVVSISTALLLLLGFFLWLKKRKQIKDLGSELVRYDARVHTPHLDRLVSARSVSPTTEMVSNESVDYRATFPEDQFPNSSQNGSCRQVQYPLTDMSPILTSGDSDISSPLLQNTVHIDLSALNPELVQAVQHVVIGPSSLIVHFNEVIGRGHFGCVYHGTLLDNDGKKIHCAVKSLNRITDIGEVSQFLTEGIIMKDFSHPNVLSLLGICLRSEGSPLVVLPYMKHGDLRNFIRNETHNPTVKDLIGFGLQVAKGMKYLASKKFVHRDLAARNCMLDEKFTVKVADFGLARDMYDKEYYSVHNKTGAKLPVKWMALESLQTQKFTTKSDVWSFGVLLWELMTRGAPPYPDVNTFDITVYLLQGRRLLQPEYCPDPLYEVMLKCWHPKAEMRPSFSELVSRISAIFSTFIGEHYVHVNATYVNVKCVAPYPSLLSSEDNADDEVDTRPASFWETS
EGFR (ErbB1), sequence (P00533 25-1210, species assumed): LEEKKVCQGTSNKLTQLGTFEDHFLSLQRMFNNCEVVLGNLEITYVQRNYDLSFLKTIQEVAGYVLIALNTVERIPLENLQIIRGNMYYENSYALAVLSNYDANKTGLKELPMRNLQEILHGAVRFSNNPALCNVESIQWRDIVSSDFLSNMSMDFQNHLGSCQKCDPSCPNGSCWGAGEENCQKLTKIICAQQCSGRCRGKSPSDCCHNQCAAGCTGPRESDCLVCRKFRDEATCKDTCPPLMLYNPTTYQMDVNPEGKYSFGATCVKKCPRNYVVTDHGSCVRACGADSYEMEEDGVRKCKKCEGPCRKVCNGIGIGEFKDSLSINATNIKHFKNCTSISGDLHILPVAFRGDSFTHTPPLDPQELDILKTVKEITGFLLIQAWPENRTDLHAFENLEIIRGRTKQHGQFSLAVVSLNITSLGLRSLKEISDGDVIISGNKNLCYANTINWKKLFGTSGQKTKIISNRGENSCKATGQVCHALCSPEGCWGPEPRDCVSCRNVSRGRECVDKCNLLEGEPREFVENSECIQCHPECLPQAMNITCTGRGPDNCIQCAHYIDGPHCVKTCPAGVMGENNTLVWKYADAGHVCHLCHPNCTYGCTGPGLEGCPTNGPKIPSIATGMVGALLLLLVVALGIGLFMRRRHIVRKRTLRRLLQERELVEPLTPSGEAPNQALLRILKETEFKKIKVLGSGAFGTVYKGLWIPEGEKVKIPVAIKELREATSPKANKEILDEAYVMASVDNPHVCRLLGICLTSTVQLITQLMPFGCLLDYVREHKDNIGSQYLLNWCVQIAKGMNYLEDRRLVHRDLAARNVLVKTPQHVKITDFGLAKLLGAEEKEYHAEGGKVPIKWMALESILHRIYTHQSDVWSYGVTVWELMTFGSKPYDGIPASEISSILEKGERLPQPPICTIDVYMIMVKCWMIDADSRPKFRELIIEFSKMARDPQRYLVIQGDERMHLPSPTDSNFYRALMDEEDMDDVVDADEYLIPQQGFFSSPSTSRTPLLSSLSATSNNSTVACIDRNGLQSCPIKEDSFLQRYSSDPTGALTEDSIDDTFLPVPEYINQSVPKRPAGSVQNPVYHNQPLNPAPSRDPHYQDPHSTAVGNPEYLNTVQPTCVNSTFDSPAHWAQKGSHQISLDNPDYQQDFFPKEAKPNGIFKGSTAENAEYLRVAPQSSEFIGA

For the compound `Nc1ncnc2c1ncn2[C@@H]1O[C@H](COC(=O)N2CCS(=O)(=O)CC2)[C@@H](O)[C@H]1O` [Compound C100], the inhibition at 10 µM is 8% against EGFR (ErbB1); -2% against FRAP1 (mTOR); -9% against IKBKB (IKK beta); 0% against IRAK4; -9% on KIT; -3% at MET (cMet).
